From patent US4582824A, “Method for inhibiting activities of platelet activating factor” (Takeda Chemical Industries, Ltd., priority 1983, dated 1986)

Columns and labels:
[1] = tested on: PAF-induced platelet aggregation (washed PRP); assay: Activity to inhibit PAF in platelet aggregation (washed PRP); type: cell-based, rabbit; details: Oryctolagus cuniculus, test compound 3×10^-5 M, PAF 3×10^-7 M, 37° C., read-out: Inhibition rate
Description: Using an injection syringe containing a 3.15% solution of citric acid (in a ratio of 1 part per 9 parts of blood) as an anticoagulant, the blood was directly collected from a male rabbit. Then, at room temperature, the blood was centrifuged at 1,000 r.p.m. for 10 minutes to harvest a platelet rich plasma (PRP). This PRP was further centrifuged at 1,400 r.p.m. for 15 minutes to give a platelet pellet. The pellet was suspended in Ca^++ -free Tyrode solution (containing 0.25% of gelatin) to give a washed PRP. This washed PRP (250 μl) was stirred at 37° C. for 2 minutes, then 25 μl of a 0.2 to 0.5 mM Ca^++ solution was added, and the mixture was further stirred for 30 seconds. Then, the test compound was added to the above platelet preparation to a level of 3×10^-5 M. After stirring the mixture for 2 minutes, 3×10^-7 M of PAF was added. The degree of platelet aggregation was determined with a platelet aggregometer (Rika Denki). The activity of the test compound was estimated from the inhibition rate as compared with the maximum optical transmission (maximum aggregation) of control PRP by PAF.

[2] = tested on: PAF-induced respiratory (airway) stenosis; assay: PAF-inhibiting activity in respiratory stenosis; type: in vivo, guinea pig (Hartley); details: for suppression of the airway stenosis response by PAF: 2 minutes before PAF 0.3 μg/kg i.v.
Description: Male and female Hartley strain guinea pigs weighing about 400 g were used. Under urethane anesthesia (1.5 g/kg, i.p.), each animal was immobilized in supine position and one shank of a tracheal cannula (of 4-shank type) was inserted into the airway, with two of the remaining three shanks being connected to a Harvard Apparatus rodent respirator and the remaining one shank to a bronchospasm transducer (Ugo-basile Model 7020). At an air volume of 5 to 7 ml per cycle, an air supply frequency of 70 times/min. and a lung loading pressure of 10 cm H2 O, the volume of overflowing air was recorded through the transducer on a rectigraph (Rectigraph-8S, Sanei Sokki K.K.). After gallamine triethodide (1 mg/kg, i.v.) treatment, […] of histamine 2HCl was intravenously administered to examine the response of the animal. When 0.3 μg/kg of PAF was intravenously administered to control group intravenously pretreated with physiological saline, a miximum airway stenosis was noted after 30 minutes and the amount of stenosis taking a complete stenosis as 100% was 72.8±4.3 (mean±S.D., for 6 cases). The compound of Production Example 2, when intravenously administered 2 minutes before at the dose levels of 0.3 and 1 mg/kg, suppressed the above response by PAF by 49% and 82%, respectively.

[3] = tested on: endotoxin-induced blood pressure fall; assay: Anti-endotoxin shock activity in rats; type: in vivo, rat (Sprague-Dawley); details: 10 mg/kg i.v., 10 minutes before endotoxin 15 mg/kg i.v., mean ± SD
Description: Male Sprague-Dawley rats weighing 500 to 600 g were used under pentobarbital sodium (50 mg/kg, i.v.) anesthesia. A cannula was inserted into the femoral artery and secured in position for measurement of blood pressure and another cannula into the femoral vein for administration of a solution of the drug. The blood pressure was measured via a pressure transducer and recorded on a polygraph. For a control group, a suspension of endotoxin (Lipopolysaccharide W. E. coli 0111: B4, Wako Pure Chemical) in physiological saline was administered into the femoral vein and the maximum hypotensive response occurring 3 to 5 minutes after administration was recorded. On the other hand, for the administration of 3-(N-n-octadecylcarbamoyloxy)-2-methoxypropyl 2-thiazolioethyl phosphate [hereinafter, compound (IA)], the compound (IA) was dissolved in physiological saline and administered into the femoral vein in a dose of 10 mg/kg. Ten (10) minutes after the administration of (IA), endotoxin was similarly administered and the maximum hypotensive response was recorded. The anti-endotoxin shock activity of the test compound was estimated from the difference in blood pressure response between the (IA) treatment group and the non-(IA)treatment group.

[4] = tested on: endotoxin-induced death; assay: Preventive effect against endotoxin-induced death in mice; type: in vivo, mouse (ICR-Jcl); details: 10 mg/kg i.v. + endotoxin 15 mg/kg i.v.
Description: Male mice of ICR-Jcl strain, aged 5 weeks and with a body weight of about 30 g, were used in groups of 7 individuals. For the control group, 15 mg/kg of endotoxin was suspended in 0.1 ml/10 g of physiological saline and injected into the tail vein. For the compound (IA) treatment group, 10 mg/kg of the compound (IA) and 15 mg/kg of endotoxin were suspended in 0.1 ml/10 g of physiological saline and similarly injected into the tail vein. The mice were examined for death up to 20 hours after the treatment.

[5] = tested on: circulatory shock due to PAF; assay: Inhibitory activity against circulatory shock due to PAF in anesthetized dogs; type: in vivo, mongrel dogs
Description: Male and female mongrel dogs weighing 9 to 13 kg were used. Under pentobarital sodium ([…], i.v.) anesthesia and supportive respiration, a thoracotomy was performed at the left fourth interspace. The origin of the left coronary circumflex and the aortic arch were released, an electromagnetic probe was attached to each, and the coronary blood flow (CoF) and cardiac output (CO) were measured. Moreover, a polyethylene cannula was inserted from the apex of the heart into the left ventricle and the left ventricular pressure (LVP) was measured by means of a pressure transducer. In addition, its first-order differential dp/dt was determined by way of a differential circuit. The mean blood pressure (MBP) was continuously recorded on an ink-writing polygraph through a pressure transducer via a cannula inserted into the right femoral artery and the heart rate (HR) was similarly recorded via a tachometer driven by mean blood pressure pulse waves. PAF and the compound of Production Example 2 were respectively dissolved in physiological saline and administered via a cannula into the left femoral vein. After 1.0 μg/kg of PAF was intravenously administered and the respective parameters recovered to normal, the compound of Production Example 2 (10 mg/kg) was intravenously administered. After 10 minutes, 1.0 μg/kg of PAF was intravenously administered to estimate the anti-PAF activity of the compound of Production Example 2. All values are in percents relative to the values prior to PAF administration.

[6] = tested on: respiratory stenosis; details: compared with all the known compounds; cited from earlier work
[7] = tested on: platelet aggregation; details: compared with ADP and TXA2; cited from earlier work
[8] = PAF 1.0 μg/kg i.v. after pretreatment 10 mg/kg i.v., 0.5 min
[9] = PAF 1.0 μg/kg i.v. after pretreatment 10 mg/kg i.v., 1 min
[10] = PAF 1.0 μg/kg i.v. after pretreatment 10 mg/kg i.v., 5 min
[11] = PAF 1.0 μg/kg i.v. alone, 0.5 min
[12] = PAF 1.0 μg/kg i.v. alone, 1 min
[13] = PAF 1.0 μg/kg i.v. alone, 5 min

Compound: CCCCCCCCCCCCCCCCCCNC(=O)OCC(COP(=O)([O-])OCC[n+]1ccsc1)OC (stereo not shown) [Production Example 2, 3-(N-Octadecylcarbamoyloxy)-2-methoxypropyl 2-thiazolioethyl phosphate]
- inhibition at 30 µM [1]: 100%
- suppression of the airway stenosis response by PAF ([2]; 0.3 mg/kg i.v.): 49%
- suppression of the airway stenosis response by PAF ([2]; 1 mg/kg i.v.): 82%
- Max. hypotensive response after drug administration (-ΔmmHg) ([3]; listed as Compound (IA)): 15 ± 3 mmHg
- Max. hypotensive response after drug administration (-ΔmmHg) ([3]; listed as compound (IA)): 15 mmHg
- Mortality within 20 hrs. [4]: 14%
- No. of deaths within 20 hrs. after drug administration, Deaths/survivals [4]: 1/7
- CO (percent of value prior to PAF) [5, 8]: 107 ± 4%
- CoF (percent of value prior to PAF) [5, 8]: 109 ± 4%
- DBP (percent of value prior to PAF) [5, 8]: 78 ± 5%
- HR (percent of value prior to PAF) [5, 8]: 109 ± 2%
- LVP (percent of value prior to PAF) [5, 8]: 92 ± 3%
- MBP (percent of value prior to PAF) [5, 8]: 87 ± 7%
- SBP (percent of value prior to PAF) [5, 8]: 90 ± 3%
- max dp/dt (row head is a drawing; percent of value prior to PAF) [5, 8]: 94 ± 7%
- CO (percent of value prior to PAF) [5, 9]: 99 ± 2%
- CoF (percent of value prior to PAF) [5, 9]: 103 ± 3%
- DBP (percent of value prior to PAF) [5, 9]: 99 ± 1%
- HR (percent of value prior to PAF) [5, 9]: 105 ± 1%
- LVP (percent of value prior to PAF) [5, 9]: 97 ± 3%
- MBP (percent of value prior to PAF) [5, 9]: 99 ± 1%
- SBP (percent of value prior to PAF) [5, 9]: 99 ± 1%
- max dp/dt (row head is a drawing; percent of value prior to PAF) [5, 9]: 98 ± 2%
- CO (percent of value prior to PAF) [5, 10]: 103 ± 5%
- CoF (percent of value prior to PAF) [5, 10]: 97 ± 3%
- DBP (percent of value prior to PAF) [5, 10]: 101 ± 2%
- HR (percent of value prior to PAF) [5, 10]: 103 ± 3%
- LVP (percent of value prior to PAF) [5, 10]: 100 ± 1%
- MBP (percent of value prior to PAF) [5, 10]: 101 ± 2%
- SBP (percent of value prior to PAF) [5, 10]: 102 ± 3%
- max dp/dt (row head is a drawing; percent of value prior to PAF) [5, 10]: 102 ± 3%

Compound: CCCCCCCCCCCCCCCCOCC(COP(=O)([O-])OCC[N+](C)(C)C)OC(C)=O (stereo not shown) [PAF, 1-O-alkyl-2-acetyl-sn-glyceryl-3-phosphorylcholine]
- amount of stenosis taking a complete stenosis as 100% ([2]; PAF 0.3 μg/kg i.v., control group pretreated with saline, mean±S.D., 6 cases): 72.8±4.3%
- activity in respiratory stenosis assay in words [6]: highest activity of all the known compounds
- decrease of CO in words ([5]; PAF 1.0 μg/kg i.v.): particularly remarkable
- heart rate (HR) change in words ([5]; PAF 1.0 μg/kg i.v.): only a slight decrease
- time before the preadministration values were recovered ([5]; PAF 1.0 μg/kg i.v.): 60 min
- CO (percent of value prior to PAF) [5, 11]: 93 ± 13%
- CoF (percent of value prior to PAF) [5, 11]: 75 ± 3%
- DBP (percent of value prior to PAF) [5, 11]: 58 ± 3%
- HR (percent of value prior to PAF) [5, 11]: 96 ± 8%
- LVP (percent of value prior to PAF) [5, 11]: 81 ± 1%
- MBP (percent of value prior to PAF) [5, 11]: 62 ± 4%
- SBP (percent of value prior to PAF) [5, 11]: 70 ± 5%
- max dp/dt (row head is a drawing; percent of value prior to PAF) [5, 11]: 76 ± 8%
- CO (percent of value prior to PAF) [5, 12]: 33 ± 3%
- CoF (percent of value prior to PAF) [5, 12]: 77 ± 3%
- DBP (percent of value prior to PAF) [5, 12]: 47 ± 3%
- HR (percent of value prior to PAF) [5, 12]: 95 ± 8%
- LVP (percent of value prior to PAF) [5, 12]: 59 ± 7%
- MBP (percent of value prior to PAF) [5, 12]: 49 ± 5%
- SBP (percent of value prior to PAF) [5, 12]: 52 ± 5%
- max dp/dt (row head is a drawing; percent of value prior to PAF) [5, 12]: 50 ± 3%
- CO (percent of value prior to PAF) [5, 13]: 35 ± 7%
- CoF (percent of value prior to PAF) [5, 13]: 56 ± 2%
- DBP (percent of value prior to PAF) [5, 13]: 67 ± 12%
- HR (percent of value prior to PAF) [5, 13]: 89 ± 3%
- LVP (percent of value prior to PAF) [5, 13]: 62 ± 6%
- MBP (percent of value prior to PAF) [5, 13]: 63 ± 11%
- SBP (percent of value prior to PAF) [5, 13]: 59 ± 9%
- max dp/dt (row head is a drawing; percent of value prior to PAF) [5, 13]: 54 ± 7%
- platelet aggregation activity in words [7]: greater activity at lower concentrations
